Data on 30 compounds can be found in patent publication US10934283B2, “COMT inhibiting methods and compositions” (LIEBER INSTITUTE FOR BRAIN DEVELOPMENT, priority 2015, dated 2021).

The target in the test is T1, catechol-O-methyltransferase (COMT) (Homo sapiens, UniProt P21964).
T1 construct: M51A variant) was expressed in HEK 293F cells
T1 sequence (P21964 52-271 limits assumed): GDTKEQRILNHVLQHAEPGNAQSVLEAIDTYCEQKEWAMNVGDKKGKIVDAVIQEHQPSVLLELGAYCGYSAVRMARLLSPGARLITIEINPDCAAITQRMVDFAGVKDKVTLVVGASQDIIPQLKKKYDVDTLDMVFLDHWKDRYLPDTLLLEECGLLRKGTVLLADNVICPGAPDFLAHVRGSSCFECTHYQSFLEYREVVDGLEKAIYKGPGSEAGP
As to the kind of experiment: COMT inhibition assay (HTRF, production of SAH from SAM). The following applies: table does not say MB-COMT or S-COMT. Type of test: biochemical. The gist of the method: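 Membranes from HEK293F cells expressing MB-COMT (M51A variant) incubated with 20 μM SAM and 1.5 μM dopamine plus compound (10 concentrations) for 40 min at 37 °C; S-COMT (Val158) at 0.15 ng/well used 100 μM dopamine, 15 min. SAH measured by HTRF against a standard curve; pIC50 from 4-parameter logistic fit.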
On the technique in general: In TR-FRET formats the signal depends on donor and acceptor labels being close together.
Regarding `O=c1cc2n(cc1O)CCN(Cc1cc([N+](=O)[O-])c(Cl)cc1Cl)C2` [Example 66, 2-[(2,4-dichloro-5-nitro-phenyl)methyl]-7-hydroxy-3,4-dihydro-1H-pyrido[1,2-a]pyrazin-8-one], the “Activity range (pIC50)” value was “+++ (three plus signs (+++) is associated with a pIC50 of above about 7)”.
The same measure for `Cc1ccccc1C(C)N1CCn2cc(O)c(=O)cc2C1` (stereo not drawn) [Example 67, 7-hydroxy-2-[1-(2-methylphenyl)ethyl]-1,2,3,4-tetrahydro-8H-pyrido[1,2-a]pyrazin-8-one]: “+++ (three plus signs (+++) is associated with a pIC50 of above about 7)”; for `CC(c1ccc(Cl)cc1)N1CCn2cc(O)c(=O)cc2C1` (stereo not drawn) [Example 68, 2-[1-(4-chlorophenyl)ethyl]-7-hydroxy-1,2,3,4-tetrahydro-8H-pyrido[1,2-a]pyrazin-8-one]: “++ (two plus signs (++) is associated with a pIC50 of from about 6 to 7)”.
The same measure for `CC(c1cc(Cl)ccc1Cl)N1CCn2cc(O)c(=O)cc2C1` (stereo not drawn) [Example 69, 2-[1-(2,5-dichlorophenyl)ethyl]-7-hydroxy-1,2,3,4-tetrahydro-8H-pyrido[1,2-a]pyrazin-8-one]: “+++ (three plus signs (+++) is associated with a pIC50 of above about 7)”; for `CC(c1ccc(C(F)(F)F)cc1)N1CCn2cc(O)c(=O)cc2C1` (stereo not drawn) [Example 70, 7-hydroxy-2-{1-[4-(trifluoromethyl)phenyl]ethyl}-1,2,3,4-tetrahydro-8H-pyrido[1,2-a]pyrazin-8-one]: “++ (two plus signs (++) is associated with a pIC50 of from about 6 to 7)”; for `Cc1cccc(C(C)N2CCn3cc(O)c(=O)cc3C2)c1` (stereo not drawn) [Example 71, 7-hydroxy-2-[1-(3-methylphenyl)ethyl]-1,2,3,4-tetrahydro-8H-pyrido[1,2-a]pyrazin-8-one]: “++ (two plus signs (++) is associated with a pIC50 of from about 6 to 7)”.
The value for `CC(c1cccc(Cl)c1)N1CCn2cc(O)c(=O)cc2C1` (stereo not drawn) [Example 72, 2-[1-(3-chlorophenyl)ethyl]-7-hydroxy-1,2,3,4-tetrahydro-8H-pyrido[1,2-a]pyrazin-8-one] was “++ (two plus signs (++) is associated with a pIC50 of from about 6 to 7)”; that for `O=c1cc2n(cc1O)CCN(C1CCc3c(Cl)cccc31)C2` (stereo not drawn) [Example 73, 2-(4-chloro-2,3-dihydro-1H-inden-1-yl)-7-hydroxy-1,2,3,4-tetrahydro-8H-pyrido[1,2-a]pyrazin-8-one] was “+++ (three plus signs (+++) is associated with a pIC50 of above about 7)”.
Regarding `COc1cccc(OC)c1C(C)N1CCn2cc(O)c(=O)cc2C1` (stereo not drawn) [Example 74, 2-[1-(2,6-dimethoxyphenyl)ethyl]-7-hydroxy-1,2,3,4-tetrahydro-8H-pyrido[1,2-a]pyrazin-8-one], the “Activity range (pIC50)” value is reported as “++ (two plus signs (++) is associated with a pIC50 of from about 6 to 7)”.
The value for `CC(c1cc(F)cc(F)c1F)N1CCn2cc(O)c(=O)cc2C1` (stereo not drawn) [Example 75, 7-hydroxy-2-[1-(2,3,5-trifluorophenyl)ethyl]-1,2,3,4-tetrahydro-8H-pyrido[1,2-a]pyrazin-8-one] was “+++ (three plus signs (+++) is associated with a pIC50 of above about 7)”; that for `CC(c1ccccc1Cl)N1CCn2cc(O)c(=O)cc2C1` (stereo not drawn) [Example 76, 2-[1-(2-chlorophenyl)ethyl]-7-hydroxy-1,2,3,4-tetrahydro-8H-pyrido[1,2-a]pyrazin-8-one] was “+++ (three plus signs (+++) is associated with a pIC50 of above about 7)”; that for `CC(c1ccccc1OCc1ccccc1)N1CCn2cc(O)c(=O)cc2C1` (stereo not drawn) [Example 77, 2-{1-[2-(benzyloxy)phenyl]ethyl}-7-hydroxy-1,2,3,4-tetrahydro-8H-pyrido[1,2-a]pyrazin-8-one] was “+++ (three plus signs (+++) is associated with a pIC50 of above about 7)”.
The same measure for `CCCCC(c1ccccc1)N1CCn2cc(O)c(=O)cc2C1` (stereo not drawn) [Example 78, 7-hydroxy-2-(1-phenylpentyl)-1,2,3,4-tetrahydro-8H-pyrido[1,2-a]pyrazin-8-one]: “+++ (three plus signs (+++) is associated with a pIC50 of above about 7)”; for `O=c1cc2n(cc1O)CCN(C1CCc3cccc(F)c31)C2` (stereo not drawn) [Example 79, 2-(7-fluoro-2,3-dihydro-1H-inden-1-yl)-7-hydroxy-1,2,3,4-tetrahydro-8H-pyrido[1,2-a]pyrazin-8-one]: “+++ (three plus signs (+++) is associated with a pIC50 of above about 7)”.
The value for `O=c1cc2n(cc1O)CCN(C1CC(c3ccccc3)Oc3ccccc31)C2` (stereo not drawn) [Example 80, 7-hydroxy-2-(2-phenyl-3,4-dihydro-2H-chromen-4-yl)-1,2,3,4-tetrahydro-8H-pyrido[1,2-a]pyrazin-8-one] was “++ (two plus signs (++) is associated with a pIC50 of from about 6 to 7)”; that for `CC(c1cccc(F)c1)N1CCn2cc(O)c(=O)cc2C1` (stereo not drawn) [Example 81, 2-[1-(3-fluorophenyl)ethyl]-7-hydroxy-1,2,3,4-tetrahydro-8H-pyrido[1,2-a]pyrazin-8-one] was “++ (two plus signs (++) is associated with a pIC50 of from about 6 to 7)”; that for `O=c1cc2n(cc1O)CCN(C(c1ccccc1)C1CCCC1)C2` (stereo not drawn) [Example 82, 2-[cyclopentyl(phenyl)methyl]-7-hydroxy-1,2,3,4-tetrahydro-8H-pyrido[1,2-a]pyrazin-8-one] was “+++ (three plus signs (+++) is associated with a pIC50 of above about 7)”.
Consider `COc1cccc(C(C)N2CCn3cc(O)c(=O)cc3C2)c1` (stereo not drawn) [Example 83, 7-hydroxy-2-[1-(3-methoxyphenyl)ethyl]-1,2,3,4-tetrahydro-8H-pyrido[1,2-a]pyrazin-8-one], for which the “Activity range (pIC50)” value is on record as “++ (two plus signs (++) is associated with a pIC50 of from about 6 to 7)”.
The same measure for `O=c1cc2n(cc1O)CCN(C1CCc3ccccc31)C2` (stereo not drawn) [Example 84, 2-(2,3-dihydro-1H-inden-1-yl)-7-hydroxy-1,2,3,4-tetrahydro-8H-pyrido[1,2-a]pyrazin-8-one]: “++ (two plus signs (++) is associated with a pIC50 of from about 6 to 7)”; for `CC(c1c(F)ccc(Cl)c1F)N1CCn2cc(O)c(=O)cc2C1` (stereo not drawn) [Example 85, 2-[1-(3-chloro-2,6-difluorophenyl)ethyl]-7-hydroxy-1,2,3,4-tetrahydro-8H-pyrido[1,2-a]pyrazin-8-one]: “+++ (three plus signs (+++) is associated with a pIC50 of above about 7)”; for `O=c1cc2n(cc1O)CCN(C1CCCCc3ccccc31)C2` (stereo not drawn) [Example 86, 7-hydroxy-2-(6,7,8,9-tetrahydro-5H-benzo[7]annulen-5-yl)-1,2,3,4-tetrahydro-8H-pyrido[1,2-a]pyrazin-8-one]: “+++ (three plus signs (+++) is associated with a pIC50 of above about 7)”.
The value for `Cc1ccc(C)c(C(C)N2CCn3cc(O)c(=O)cc3C2)c1` (stereo not drawn) [Example 87, 2-[1-(2,5-dimethylphenyl)ethyl]-7-hydroxy-1,2,3,4-tetrahydro-8H-pyrido[1,2-a]pyrazin-8-one] was “+++ (three plus signs (+++) is associated with a pIC50 of above about 7)”; that for `O=c1cc2n(cc1O)CCN(C(Cc1ccccc1)c1ccccc1)C2` (stereo not drawn) [Example 88, 2-(1,2-diphenylethyl)-7-hydroxy-1,2,3,4-tetrahydro-8H-pyrido[1,2-a]pyrazin-8-one] was “+++ (three plus signs (+++) is associated with a pIC50 of above about 7)”.
As to `CCC(c1ccccc1)N1CCn2cc(O)c(=O)cc2C1` (stereo not drawn) [Example 89, 7-hydroxy-2-(1-phenylpropyl)-1,2,3,4-tetrahydro-8H-pyrido[1,2-a]pyrazin-8-one], the “Activity range (pIC50)” value was “++ (two plus signs (++) is associated with a pIC50 of from about 6 to 7)”.
With `O=c1cc2n(cc1O)CCN(C1CCCc3ccccc31)C2` (stereo not drawn) [Example 90, 7-hydroxy-2-(1,2,3,4-tetrahydronaphthalen-1-yl)-1,2,3,4-tetrahydro-8H-pyrido[1,2-a]pyrazin-8-one], the “Activity range (pIC50)” value is recorded as “+++ (three plus signs (+++) is associated with a pIC50 of above about 7)”.
The same measure for `COc1ccc2c(c1)C(N1CCn3cc(O)c(=O)cc3C1)CCC2` (stereo not drawn) [Example 91, 7-hydroxy-2-(7-methoxy-1,2,3,4-tetrahydronaphthalen-1-yl)-1,2,3,4-tetrahydro-8H-pyrido[1,2-a]pyrazin-8-one]: “+++ (three plus signs (+++) is associated with a pIC50 of above about 7)”; for `Cc1cccc2c1CCC2N1CCn2cc(O)c(=O)cc2C1` (stereo not drawn) [Example 92, 7-hydroxy-2-(4-methyl-2,3-dihdyro-1H-inden-1-yl)-1,2,3,4-tetrahydro-8H-pyrido[1,2-a]pyrazin-8-one]: “+++ (three plus signs (+++) is associated with a pIC50 of above about 7)”; for `CCCC(c1ccccc1)N1CCn2cc(O)c(=O)cc2C1` (stereo not drawn) [Example 93, 7-hydroxy-2-(1-phenylbutyl)-1,2,3,4-tetrahydro-8H-pyrido[1,2-a]pyrazin-8-one]: “++ (two plus signs (++) is associated with a pIC50 of from about 6 to 7)”.
The same measure for `CC(c1ccc(C#N)cc1)N1CCn2cc(O)c(=O)cc2C1` (stereo not drawn) [Example 94, 4-[1-(7-hydroxy-8-oxo-1,3,4,8-tetrahydro-2H-pyrido[1,2-a]pyrazin-2-yl)ethyl]benzonitrile]: “++ (two plus signs (++) is associated with a pIC50 of from about 6 to 7)”.
For `CC(c1cccc(C#N)c1)N1CCn2cc(O)c(=O)cc2C1` (stereo not drawn) [Example 95, 3-[1-(7-hydroxy-8-oxo-1,3,4,8-tetrahydro-2H-pyrido[1,2-a]pyrazin-2-yl)ethyl]benzonitrile], the “Activity range (pIC50)” value is given as “++ (two plus signs (++) is associated with a pIC50 of from about 6 to 7)”.
